Measurements taken from patent US20220411362A1, “DITERPENOID COMPOUNDS THAT ACT ON PROTEIN KINASE C (PKC)” (K-Gen, Inc., priority 2019, published 2022).
Like-named read-outs stand apart in the source and are kept apart here.

How the values were obtained:
[1] = system: A549 non-small cell lung cancer cell line; assay: Proliferation of A549 (CellTiter Glo); type: cell-based; details: Homo sapiens, read-out: IC50 μM (A549 Cell Line)
Protocol: (§1) The diterpenoid compounds were tested in A549, a non-small cell lung cancer cell line harboring a K-Ras activating mutation. Briefly, A549 cells at a density of 1,000 cells/well were seeded in 96-well plates and incubated at 37° C. for 24 hours. A series of different concentrations of compound stocks (500×) were prepared by 3-fold serial dilution in DMSO. These compounds were further diluted in culture media and then added to cells so that the final DMSO concentration was not exceeding 0.25%. After 96 hours of incubation, 50 μL of CellTiter Glo reagent (Promega) was added to each well and luminescence was measured after 10 minutes using EnVision (PerkinElmer). Luminescence from cells treated with DMSO alone was set as Max and % of inhibition was calculated as follows: Inhibition %=(Max−Sample value)/Max×100. Data was analyzed using XL-fit software (ID Business Solutions Ltd.) and IC50, relative IC50, and % of top inhibition was calculated. Some of the compounds in this disclosure were very potent in blocking proliferation of A549 lung cancer cells at low nM range. In addition, potency of inhibiting A549 proliferation correlated well with its binding affinity to PKCs for this series of compounds. In other words, higher affinity binders had stronger inhibitory effects on A549 proliferation. This further support the notion that activation, rather than inhibition, of certain PKC isoforms is required to block proliferation of cancer cells, some of which may harbor K-Ras mutations. This is in sharp contrast to previous literature and common belief that inhibition of PKC is necessary to block cancer cell growth (Kang, 2014, New Journal of Science, 2014:1-36). Data presented here is in agreement with recent findings that many loss-of-function but not gain-of-function mutations of PKC isoforms have been identified in many human cancers (Antal et al., 2015, Cell, 160:489-502).

[2] = system: Namalwa (Lymphoma) cell line; assay: Proliferation of Namalwa; type: cell-based; details: for ratio of (IC50 of K01)/(IC50 of compound), Namalwa: value in parenthesis; for IC50: read-out: IC50 in μM Namalwa (Lymphoma)
Protocol: as §1
(§2) The compounds in this disclosure were tested for their potency in blocking proliferation of a few other cancer cells lines, including K-Ras mutant pancreatic cell lines Panc2.13 and KP-4, leukemia cell line HL-60, and lymphoma cell lines Namalwa and Mino. Similar procedures as in Example 67 were followed. Initial cell numbers seeded in 96-well plates were different for different cell lines: 3000 cells/well for Panc2.13; 800-1000 cells/well for KP-4; 5000 cells/well for HL-60; 5000-10000 cells/well for Namalwa and Mino. A ratio ratio of (IC50 of K01)/(IC50 of compound) (data in parenthesis in Table 5) was used to normalize the compound potency from different assay batches to a common comparator […].

C1b domain of human PKCδ = biological target: T1, C1b domain of human PKCδ (Homo sapiens, UniProt Q05655); assay: Competitive 3H-PDBu binding to C1b domain of PKCδ; details: 3H-PDBu competition
T1 construct: Genes encoding C1b domains of human PKCα, δ, ε, θ, and PKD1 (PKCμ) were synthesized; made in house; host or cells: E. coli BL21(DE3)
T1 sequence (Q05655 230-280 limits assumed): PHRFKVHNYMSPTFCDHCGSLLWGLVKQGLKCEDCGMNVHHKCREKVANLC
Protocol: (§3) Compounds described in this disclosure were tested for binding affinity to C1b domain of PKC isoforms. Compound binding affinity to C1b domain of PKC isoforms was derived from competitive binding assay using radioactive tracer ^3H-PDBu and recombinant GST-C1b or full-length of human PKC proteins based on modified procedures from Methods in Molecular Biology, vol.
(§4) Genes encoding C1b domains of human PKCα, δ, ε, θ, and PKD1 (PKCμ) were synthesized and inserted into pGEX-2TK or pGEX-4T1 vectors for expression and production of GST-C1b proteins in E. coli BL21(DE3) via IPTG induction. The target proteins were purified by glutathione sepharose 4B and followed by ion exchange chromatography if needed to achieve purity >70%. Aliquots of the purified proteins were stored at −80 degree for binding assay (storage buffer: 20 mM Tris pH 8.0, 200 mM NaCl, 10% glycerol, 1 mM DTT).
(§5) The plate was incubated at 37° C. on a shaker at 300 rpm for 10 minutes and then put on ice for 20 minutes. […] The bottom of the filter plate was sealed and 50 μL of MicroScint-20 (PerkinElmer) cocktail was added to each well. ^3H-PDBu trapped in each well was counted using PerkinElmer MicroBeta2 Reader. Data were analyzed using GraphPad Prism5 with the model “log(inhibitor) vs. response-variable slope” to fit the IC50, and then IC50 was transformed to Ki using Cheng-Prusoff equation: Ki=IC50/(1+added radio ligand/Kd). Kd is the binding affinity of each protein preparation to ^3H-PDBu, determined experimentally.

[3] = system: Mino (Lymphoma) cell line; assay: Proliferation of Mino; type: cell-based
Protocol: as §1, §2

[4] = system: HL-60 (Leukemia) cell line; assay: Proliferation of HL-60; type: cell-based
Protocol: as §1, §2

C1b domain of human PKCε = biological target: T2, C1b domain of human PKCε (Homo sapiens, UniProt Q02156); assay: Competitive 3H-PDBu binding to C1b domain of PKCε
T2 construct: Genes encoding C1b domains of human PKCα, δ, ε, θ, and PKD1 (PKCμ) were synthesized; made in house; host or cells: E. coli BL21(DE3)
T2 sequence (Q02156 242-292 limits assumed): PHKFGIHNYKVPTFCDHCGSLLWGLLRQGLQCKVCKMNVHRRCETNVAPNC
Protocol: as §3, §4, §5

C1b domain of human PKCθ = biological target: T3, C1b domain of human PKCθ (Homo sapiens, UniProt Q04759); assay: Competitive 3H-PDBu binding to C1b domain of PKCθ
T3 construct: Genes encoding C1b domains of human PKCα, δ, ε, θ, and PKD1 (PKCμ) were synthesized; made in house; host or cells: E. coli BL21(DE3)
T3 sequence (Q04759 231-281 limits assumed): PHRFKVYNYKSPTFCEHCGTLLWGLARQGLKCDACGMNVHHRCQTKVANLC
Protocol: as §3, §4, §5

[5] = biological target: T4, C1b domain of human PKD1 (PKCμ) (Homo sapiens, UniProt Q15139); assay: biochemical; type: binding
T4 construct: Genes encoding C1b domains of human PKCα, δ, ε, θ, and PKD1 (PKCμ) were synthesized; made in house; host or cells: E. coli BL21(DE3)
T4 sequence (Q15139 270-320 limits assumed): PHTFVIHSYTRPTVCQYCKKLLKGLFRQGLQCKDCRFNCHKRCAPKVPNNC
Protocol: as §3, §4, §5

C1b domain of human PKCα = biological target: T5, C1b domain of human PKCα (Homo sapiens, UniProt P17252); assay: biochemical; type: binding; details: 3H-PDBu competition
T5 construct: Genes encoding C1b domains of human PKCα, δ, ε, θ, and PKD1 (PKCμ) were synthesized; made in house; host or cells: E. coli BL21(DE3)
Protocol: as §3, §4
The plate was incubated at 37° C. on a shaker at 300 rpm for 10 minutes and then put on ice for 20 minutes. […] The bottom of the filter plate was sealed and 50 μL of MicroScint-20 (PerkinElmer) cocktail was added to each well. ^3H-PDBu trapped in each well was counted using PerkinElmer MicroBeta2 Reader. […] Kd is the binding affinity of each protein preparation to ^3H-PDBu, determined experimentally.

[6] = Homo sapiens, MINO, read-out: IC50 in μM Mino (Lymphoma)
[7] = Homo sapiens, HL-60, read-out: IC50 in μM HL-60 (Leukemia)

Row | Structure (SMILES) | IC50 ([1]; A549, 96 h) [µM] | Ki (C1b domain of human PKCδ; Ki PKCδ) [nM] | Ki (C1b domain of human PKCε) [nM] | Ki (C1b domain of human PKCθ) [nM] | Ki [5] [nM] | Ki (C1b domain of human PKCα; Ki PKCα) [nM] | also measured
1 | CC1=C[C@H]2[C@@]3(O)[C@H](C)C[C@]4(OC(=O)CCc5ccc(C(F)(F)F)cc5)[C@H]([C@@H]3C=C(CO)C[C@]2(O)C1=O)C4(C)C [Compound K101-C1302] | 0.01 to 0.03 | < 5 | < 5 | < 5 | < 5 | 30 to 60 | ratio of (IC50 of K01)/(IC50 of compound), Namalwa [2]: 13.8; IC50 [2]: 0.001 to 0.01 µM; IC50 [3, 6]: < 0.001 µM; ratio of (IC50 of K01)/(IC50 of compound), Mino ([3]; Mino; value in parenthesis): 75; ratio of (IC50 of K01)/(IC50 of compound), HL-60 ([4]; HL-60; value in parenthesis): 72; IC50 [4, 7]: 0.001 to 0.01 µM
2 | CC1=C[C@H]2[C@@]3(O)[C@H](C)C[C@]4(OC(=O)CCC5CCCC5)[C@H]([C@@H]3C=C(CO)C[C@]2(O)C1=O)C4(C)C [Compound K101-C1301] | 0.03 to 0.06 | 5 to 10 | 5 to 10 | 1 to 30 | < 5 | 100 to 200 | ratio of (IC50 of K01)/(IC50 of compound), Namalwa [2]: 1.73; IC50 [2]: 0.03 to 0.06 µM; IC50 [3, 6]: 0.001 to 0.01 µM; ratio of (IC50 of K01)/(IC50 of compound), Mino ([3]; Mino; value in parenthesis): 11; ratio of (IC50 of K01)/(IC50 of compound), HL-60 ([4]; HL-60; value in parenthesis): 9.23; IC50 [4, 7]: 0.03 to 0.06 µM
3 | CC1=C[C@H]2[C@@]3(O)[C@H](C)C[C@]4(OC(=O)Cc5ccccc5)[C@H]([C@@H]3C=C(CO)C[C@]2(O)C1=O)C4(C)C [Compound K101-C1304] |  |  |  |  |  |  | IC50 ([1]; A549, 96 hours incubation, CellTiter Glo): 0.03 to 0.06 µM; ratio of (IC50 of K01)/(IC50 of compound), Namalwa [2]: 3.29; IC50 [2]: 0.01 to 0.03 µM; Ki (C1b domain of human PKCδ; read-out: Ki PKCδ): 5 to 10 nM; IC50 ([3]; Homo sapiens, MINO; read-out: IC50 in μM Mino (Lymphoma)): 0.001 to 0.01 µM; ratio of (IC50 of K01)/(IC50 of compound), Mino ([3]; Mino; value in parenthesis): 15.6; ratio of (IC50 of K01)/(IC50 of compound), HL-60 ([4]; HL-60; value in parenthesis): 18; IC50 ([4]; Homo sapiens, HL-60; read-out: IC50 in μM HL-60 (Leukemia)): 0.01 to 0.03 µM; Ki (C1b domain of human PKCε; C1b domain of human PKCε, 3H-PDBu competition, read-out: Ki PKCε): 1 to 30 nM; Ki (C1b domain of human PKCθ; C1b domain of human PKCθ, 3H-PDBu competition, read-out: Ki PKCθ): 5 to 10 nM; Ki ([5]; C1b domain of human PKD1 (PKCμ), 3H-PDBu competition, read-out: Ki PKD1/PKCμ): < 5 nM; Ki (C1b domain of human PKCα; read-out: Ki PKCα): 100 to 200 nM
4 | CC1=C[C@H]2[C@@]3(O)[C@H](C)C[C@]4(OC(=O)/C=C/c5ccc(C(F)(F)F)cc5)[C@H]([C@@H]3C=C(CO)C[C@]2(O)C1=O)C4(C)C [Compound K101-C1313] | 0.06 to 0.1 | 1 to 30 | 1 to 30 | 1 to 30 | < 5 | 200 to 400 | 
5 | CC1=C[C@H]2[C@@]3(O)[C@H](C)C[C@]4(OC(=O)[C@@H](N)CCCCCCc5ccc(C(F)(F)F)cc5)[C@H]([C@@H]3C=C(CO)C[C@]2(O)C1=O)C4(C)C [Compound K101-C135902] | 0.01 to 0.03 | 5 to 10 | 1 to 30 | 1 to 30 | 5 to 10 |  | Ki PKCα (C1b domain of human PKCα): E (E=>60 nM and ≤10 nM)
6 | CC1=C[C@H]2[C@@]3(O)[C@H](C)C[C@]4(OC(=O)[C@@H](N)CCCCCCc5ccc(C(F)F)cc5)[C@H]([C@@H]3C=C(CO)C[C@]2(O)C1=O)C4(C)C [Compound K101-C137002] | 0.1 to 0.2 | 1 to 30 | 30 to 60 | 1 to 30 | 5 to 10 | 200 to 400 | 
7 | CC1=C[C@H]2[C@@]3(O)[C@H](C)C[C@]4(OC(=O)CC5CC6(C5)CN(C(=O)OC(C)(C)C)C6)[C@H]([C@@H]3C=C(CO)C[C@]2(O)C1=O)C4(C)C [Compound K101-C1312] | 0.03 to 0.06 | 5 to 10 | 1 to 30 | 1 to 30 | < 5 | 100 to 200 | 
8 | CC1=C[C@H]2[C@@]3(O)[C@H](C)C[C@]4(OC(=O)C5CC6(C5)CN(C(=O)OC(C)(C)C)C6)[C@H]([C@@H]3C=C(CO)C[C@]2(O)C1=O)C4(C)C [Compound K101-C1311] | 0.1 to 0.2 | 1 to 30 | 30 to 60 | 1 to 30 | < 5 | 400 to 800 | 
9 | CC1=C[C@H]2[C@@]3(O)[C@H](C)C[C@]4(OC(=O)C5CC6(CNC6)C5)[C@H]([C@@H]3C=C(CO)C[C@]2(O)C1=O)C4(C)C [Compound K101-C1305] | > 30 | 400 to 800 | 1000 to 2000 | 200 to 400 | 100 to 200 | > 8000 | 
10 | CC1=C[C@H]2[C@@]3(O)[C@H](C)C[C@]4(OC(=O)[C@@H](N)CCCCCCCCc5ccccc5)[C@H]([C@@H]3C=C(CO)C[C@]2(O)C1=O)C4(C)C [Compound K101-C136102] | 0.001 to 0.01 | 1 to 30 | 5 to 10 | < 5 | < 5 | 30 to 60 | 
11 | CC1=C[C@H]2[C@@]3(O)[C@H](C)C[C@]4(OC(=O)[C@H](N)CCCCCCCCc5ccccc5)[C@H]([C@@H]3C=C(CO)C[C@]2(O)C1=O)C4(C)C [Compound K101-C136101] | 0.01 to 0.03 | 1 to 30 | 1 to 30 | 1 to 30 | 5 to 10 | 400 to 800 | 
